Reference: patent publication US6037348A (priority 1997, dated 2000)
In brackets after ≈: the same amount, converted by molar mass. Where two headings read alike, the source gives them in different places.

Key:
A/NWS H1N1 = test: Antiviral plaque assay, A/NWS H1N1; conditions: MDCK cells
Description: (§1) The in vitro anti-influenza activities of COMPOUND A, COMPOUND B, COMPOUND C and amantadine were evaluated using a standard plaque assay such as described in Hayden et al., Antimicrob. Agents Chemother., vol. 17, pages 865-870, (1980), herein incorporated by reference. In this assay, influenza virus-infected Madin Darby canine kidney (MDCK) cells were untreated or treated with serial dilutions of each compound. The concentration of compound required to inhibit viral plaque formation by 50% (IC50) was determined from the linear regression line of the plot of compound concentration versus percent inhibition of plaque formation. In addition, the IC50 can be determined by the method of Reed and Muench, Am. J. Hyg, vol. 27, 493-497 (1938) which is herein incorporated by reference.

B/Maryland = test: Antiviral plaque assay, B/Maryland; assay type: cell-based; conditions: Influenza B virus, MDCK cells
Description: as §1

M2 ion channel = conditions: influenza A; cited from earlier work
A/AA H2N2 = test: microbe, parasite or virus in culture; conditions: H2N2, MDCK
[1] = test system: influenza A/Kawasaki (A/KAW H1N1); test: Antiviral plaque assay, A/KAW H1N1; conditions: MDCK cells
Description: as §1

B/Lee = test: Antiviral plaque assay, B/Lee; assay type: cell-based; conditions: Influenza B virus, MDCK cells
Description: as §1

A/FM/1/47 H1N1 = test: Antiviral plaque assay, A/FM/1/47 H1N1; conditions: MDCK cells
Description: as §1

B/GL = test: Antiviral plaque assay, B/GL; assay type: cell-based; conditions: Influenza B virus, MDCK cells
Description: as §1

A/AICHI H3N2 = test: Antiviral plaque assay, A/AICHI H3N2; conditions: MDCK cells
Description: as §1

in vitro = conditions: bovine, mdbk cells
BVDV = test: microbe, parasite or virus in culture; assay type: cell-based, bovine diarrheal virus (BVDV); conditions: Bovine viral diarrhea virus isolates and strains, MDBK, in Bos taurus
infectious virions = test system: infectious virions; parameters: species or system influenza virus
[2] = read-out: IC50 (virus replication inhibited by 50%)

SMILES	IC50 (A/NWS H1N1) [µg/mL]	IC50 (B/Maryland) [µg/mL]	IC50 (A/AA H2N2) [µg/mL]	IC50 [1] [µg/mL]	IC50 (B/Lee) [µg/mL]	IC50 (A/FM/1/47 H1N1) [µg/mL]	IC50 (B/GL) [µg/mL]	IC50 (A/AICHI H3N2) [µg/mL]	CC50 (in vitro) [µg/mL]	IC50 (BVDV; read-out: IC50) [µg/mL]	IC50 (BVDV; [2]) [µg/mL]	other results
NC12CC3CC(CC(C3)C1)C2 [Amantadine, amantadine, reference compound]	> 10	> 10	0.037 (≈ 0.245 µM)	0.036 (≈ 0.238 µM)	> 10	0.13 (≈ 0.859 µM)	> 10	0.076 (≈ 0.502 µM)	–	–	–	function of the M2 ion channel activity (M2 ion channel): inhibiting the function of the M2 ion channel activity
COC(=O)C1(C)CCCC2(C)c3ccc(O)cc3C(=O)CC12 (centres unmarked) [Compound I]	–	–	–	–	–	–	–	–	32 (≈ 106 µM)	16 (≈ 53 µM)	4.94 (≈ 16.3 µM)	–
O=C(O)CCC1(c2ccccc2)CCCCC1 [COMPOUND C]	> 10	6.34 (≈ 27.3 µM)	0.069 (≈ 0.297 µM)	0.07 (≈ 0.301 µM)	> 10	0.15 (≈ 0.646 µM)	> 10	~10 (≈ 43 µM)	–	–	–	–
O=C(NCC(c1ccccc1)c1ccncc1)Nc1ccccc1Cl (centres unmarked) [COMPOUND B]	~9.59 (≈ 27.3 µM)	~2.23 (≈ 6.34 µM)	0.15 (≈ 0.426 µM)	0.024 (≈ 0.0682 µM)	~1.08 (≈ 3.07 µM)	0.18 (≈ 0.512 µM)	2.83 (≈ 8.04 µM)	~7.26 (≈ 20.6 µM)	–	–	–	–
COC(=O)C1(C)CCCC2(C)c3ccccc3C(=O)CC12 (centres unmarked) [K]	–	–	–	–	–	–	–	–	> 100	51 (≈ 178 µM)	15 (≈ 52.3 µM)	–
COC(=O)[C@@]1(C)CCC[C@]2(C)c3cc(OC)ccc3C(=O)C[C@@H]12 [COMPOUND A]	> 10	~2.7 (≈ 8.53 µM)	< 0.032	< 0.032	~1.23 (≈ 3.89 µM)	< 0.032	5.65 (≈ 17.9 µM)	~10 (≈ 31.6 µM)	51.8 (≈ 164 µM)	13.5 (≈ 42.6 µM)	3.56 (≈ 11.3 µM)	susceptibility of A/WSN/33 (influenza A/WSN/33): naturally resistant; effect on fusion of human erythrocytes with A/WSN/33-infected MDCK cells (HA of A/WSN/33): no effect; IC50 (BVDV; read-out: concentration inhibiting replication by 50%): 3.5 µg/mL (≈ 11.1 µM); IC90 (BVDV; read-out: concentration inhibiting replication by 90%): 13.4 µg/mL (≈ 42.4 µM); antiviral activity after pre-incubation with infectious virions (infectious virions): inactive; effect on expression of HA on the infected cell surface (erythrocyte binding) (HA of A/Kawasaki/86): no effect; low pH-induced fusion of MDCK cells with human erythrocytes (HA of A/Kawasaki/86; pH 4.8): inhibition of the low pH-induced fusion
CC(N)C12CC3CC(CC(C3)C1)C2 (centres unmarked) [rimantadine]	–	–	–	–	–	–	–	–	–	–	–	function of the M2 ion channel activity (M2 ion channel): inhibiting the function of the M2 ion channel activity
COC(=O)[C@@]1(C)CCC[C@@]2(C)C1=CC(=NO)c1ccc(OC)cc12 [J]	–	–	–	–	–	–	–	–	30.8 (≈ 93.4 µM)	8.9 (≈ 27 µM)	5.25 (≈ 15.9 µM)	–
